{
  "source": "ChEMBL document CHEMBL1201862",
  "about": "“PubChem BioAssay data set” (2004)",
  "assay_in_all_cases": "inhibition of tumour cell growth, NCI panel, 48 h",
  "key": {"UACC-62": {"system": "UACC-62"}, "COLO 205": {"system": "COLO 205"}, "HL-60": {"system": "HL-60"}, "NCI-H522": {"system": "NCI-H522"}, "SN12C": {"system": "SN12C"}, "MOLT-4": {"system": "MOLT-4"}, "UACC-257": {"system": "UACC-257"}, "SF-295": {"system": "SF-295"}, "M14": {"system": "M14"}, "LXFL 529": {"system": "LXFL 529"}, "KM-20L2": {"system": "KM-20L2"}, "XF498": {"system": "XF498"}, "NCI-H460": {"system": "NCI-H460"}, "RPMI-8226": {"system": "RPMI-8226"}, "TK-10": {"system": "TK-10"}, "K562": {"system": "K562"}, "CCRF-CEM": {"system": "CCRF-CEM"}, "Malme-3M": {"system": "Malme-3M"}, "SNB-19": {"system": "SNB-19"}, "M19-MEL": {"system": "M19-MEL"}, "NCI-H226": {"system": "NCI-H226"}, "NCI-H23": {"system": "NCI-H23"}, "OVCAR-8": {"system": "OVCAR-8"}, "DMS-273": {"system": "DMS-273"}, "RXF 393": {"system": "RXF 393"}, "SK-MEL-5": {"system": "SK-MEL-5"}, "A549": {"system": "A549"}, "HT-29": {"system": "HT-29"}, "SNB-75": {"system": "SNB-75"}, "SK-MEL-2": {"system": "SK-MEL-2"}, "UO-31": {"system": "UO-31"}, "HOP-18": {"system": "HOP-18"}, "HCT-116": {"system": "HCT-116"}, "OVCAR-4": {"system": "OVCAR-4"}, "HCT-15": {"system": "HCT-15"}, "ACHN": {"system": "ACHN"}, "SR": {"system": "SR"}, "SK-OV-3": {"system": "SK-OV-3"}, "U-251": {"system": "U-251"}, "786-0": {"system": "786-0"}, "DMS-114": {"system": "DMS-114"}, "HOP-62": {"system": "HOP-62"}, "SW-620": {"system": "SW-620"}, "SNB-78": {"system": "SNB-78"}, "SK-MEL-28": {"system": "SK-MEL-28"}, "SF-268": {"system": "SF-268"}, "EKVX": {"system": "EKVX"}, "LOX IMVI": {"system": "LOX IMVI"}, "KM12": {"system": "KM12"}},
  "note": "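Five compound concentrations were applied to cells in 96-well plates for 48 hours; endpoints were derived by simple linear interpolation of the resulting dose-response curve. At the GI50, growth is halved.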 Calls of active or inactive are those of the source. No stated cut-off is given here; in the data, active = GI50 up to about 1.1 µM and inactive = higher.",
  "data": [
    {"smiles": "COc1cccc(NC(=O)CSc2nnc(-c3ccc(/N=C\\c4ccc(Cl)cc4)cc3)o2)c1", "values": [
      {"measurement": "GI50", "setting": "UACC-62", "value": "14.3 µM (inactive)"},
      {"measurement": "GI50", "setting": "COLO 205", "value": "19.4 µM (inactive)"},
      {"measurement": "GI50", "setting": "HL-60", "value": "27.7 µM (inactive)"},
      {"measurement": "GI50", "setting": "NCI-H522", "value": "15.6 µM (inactive)"},
      {"measurement": "GI50", "setting": "SN12C", "value": "21.2 µM (inactive)"},
      {"measurement": "GI50", "setting": "MOLT-4", "value": "23.4 µM (inactive)"},
      {"measurement": "GI50", "setting": "UACC-257", "value": "> 10 µM (inactive)"},
      {"measurement": "GI50", "setting": "SF-295", "value": "20.2 µM (inactive)"},
      {"measurement": "GI50", "setting": "M14", "value": "19.4 µM (inactive)"},
      {"measurement": "GI50", "setting": "LXFL 529", "value": "19.8 µM (inactive)"},
      {"measurement": "GI50", "setting": "KM-20L2", "value": "16.9 µM (inactive)"},
      {"measurement": "GI50", "setting": "XF498", "value": "19.2 µM (inactive)"},
      {"measurement": "GI50", "setting": "NCI-H460", "value": "20.1 µM (inactive)"},
      {"measurement": "GI50", "setting": "RPMI-8226", "value": "18.2 µM (inactive)"},
      {"measurement": "GI50", "setting": "TK-10", "value": "30.6 µM (inactive)"},
      {"measurement": "GI50", "setting": "K562", "value": "32.6 µM (inactive)"},
      {"measurement": "GI50", "setting": "CCRF-CEM", "value": "26.6 µM (inactive)"},
      {"measurement": "GI50", "setting": "Malme-3M", "value": "17.7 µM (inactive)"},
      {"measurement": "GI50", "setting": "SNB-19", "value": "19.5 µM (inactive)"},
      {"measurement": "GI50", "setting": "M19-MEL", "value": "22.8 µM (inactive)"},
      {"measurement": "GI50", "setting": "NCI-H226", "value": "22.8 µM (inactive)"},
      {"measurement": "GI50", "setting": "NCI-H23", "value": "19.8 µM (inactive)"},
      {"measurement": "GI50", "setting": "OVCAR-8", "value": "24.4 µM (inactive)"},
      {"measurement": "GI50", "setting": "DMS-273", "value": "> 10 µM (inactive)"},
      {"measurement": "GI50", "setting": "RXF 393", "value": "18.3 µM (inactive)"},
      {"measurement": "GI50", "setting": "SK-MEL-5", "value": "18.6 µM (inactive)"},
      {"measurement": "GI50", "setting": "A549", "value": "27.2 µM (inactive)"},
      {"measurement": "GI50", "setting": "HT-29", "value": "15.6 µM (inactive)"},
      {"measurement": "GI50", "setting": "SNB-75", "value": "23.8 µM (inactive)"},
      {"measurement": "GI50", "setting": "SK-MEL-2", "value": "19 µM (inactive)"},
      {"measurement": "GI50", "setting": "UO-31", "value": "18.5 µM (inactive)"},
      {"measurement": "GI50", "setting": "HOP-18", "value": "40 µM (inactive)"},
      {"measurement": "GI50", "setting": "HCT-116", "value": "17.2 µM (inactive)"},
      {"measurement": "GI50", "setting": "OVCAR-4", "value": "37.4 µM (inactive)"},
      {"measurement": "GI50", "setting": "HCT-15", "value": 17.3, "unit": "µM"},
      {"measurement": "GI50", "setting": "ACHN", "value": "16.4 µM (inactive)"},
      {"measurement": "GI50", "setting": "SR", "value": "28.2 µM (inactive)"},
      {"measurement": "GI50", "setting": "SK-OV-3", "value": "33.3 µM (inactive)"},
      {"measurement": "GI50", "setting": "U-251", "value": "17.1 µM (inactive)"},
      {"measurement": "GI50", "setting": "786-0", "value": "24.5 µM (inactive)"},
      {"measurement": "GI50", "setting": "DMS-114", "value": "20.5 µM (inactive)"},
      {"measurement": "GI50", "setting": "HOP-62", "value": "31.6 µM (inactive)"},
      {"measurement": "GI50", "setting": "SW-620", "value": "20.4 µM (inactive)"},
      {"measurement": "GI50", "setting": "SNB-78", "value": "40.3 µM (inactive)"},
      {"measurement": "GI50", "setting": "SK-MEL-28", "value": "18.3 µM (inactive)"},
      {"measurement": "GI50", "setting": "SF-268", "value": "19.4 µM (inactive)"},
      {"measurement": "GI50", "setting": "EKVX", "value": "36.7 µM (inactive)"},
      {"measurement": "GI50", "setting": "LOX IMVI", "value": "20.2 µM (inactive)"},
      {"measurement": "GI50", "setting": "KM12", "value": "14.2 µM (inactive)"}
    ]}
  ]
}
